Measurements published in publication PMC7321149 (Molecules, 2020).
Read-outs that look alike come from different tables or passages of the source.

Legend:
[1] = system: L. amazonensis, L. braziliensis, and L. donovani; assay: Leishmania multi-species high content assay, result stated across the species panel; type: cell-based; conditions: for pan-leishmanial activity (efficacy): against all three species; for normalized activity against two species: two of the three species; for Emax: read-out: maximum efficacy
Procedure: (§1) THP-1 cells were plated onto 384-well assay plates (7000 cells/well, 25 μL) in RPMI complete media containing 50 ng/mL phorbol 12-myristate 13-acetate (PMA) and incubated at 37 °C/5% CO2 for 48 h. Cells were then infected with stationary-phase promastigotes at a multiplicity of infection (MOI) of 50 by adding 25 μL RPMI (without PMA reagent), containing 1.4 × 10^7 parasites/mL. After 24 h of incubation at 37 °C (34 °C for cutaneous species), negative control-vehicle (0.5% DMSO), the positive control (10 μM amphotericin B), and compounds were added to the plate at a volume of 10 μL/well, bringing the total volume to 60 μL/well. For the primary screenings, compounds from the LOPAC library were tested at a concentration of 50 µM. […] Assay plates were incubated at 37 °C or 34 °C/5% CO2. After 96 h of compound exposure, assay plates were fixed with paraformaldehyde (PFA) by adding 30 μL of 12% PFA in PBS, pH 7.4, followed by incubation for 15 min at room temperature. Plates were then washed three times with 50 μL of PBS, pH 7.4, and stained with 10 μL/well of 5 μM Draq5 in PBS, pH 7.4, for at least two hours before imaging.
(§2) Plates were imaged in Operetta High Content Imaging System (Perkin Elmer), version 3.1, at a 20× magnification and filters optimized for far-red fluorescence (fluorescence filter: […]). A total of four images were acquired per well, which corresponded to 600–800 cells analyzed per condition. Quantitative readouts of the infection (total THP-1 cell number, total number of infected THP-1 cells, and number of parasites (spots) per infected cell) were determined by custom analysis building blocks in Columbus image analysis software (Perkin Elmer). Briefly, host nuclei and cells were segmented based on DNA staining, followed by the detection of individual parasites also based on DNA staining. Infected cells were determined as cells with one or more spots in the cytoplasmatic area. Details of the analysis workflow are described in the (Supplementary Information (Figure S4 and Table S1).
(§3) HCS data were analyzed as previously described^29. Briefly, the ratio of infected cells to the total number of cells was determined as the infection ratio (IR). The raw data for IR values was normalized to the negative (DMSO-treated infected cells) and positive (non-infected cells) controls to determine the normalized antiparasitic activity, expressed as a percentage in comparison to control wells. The cellular ratio was determined as the proportion between the host cell number in compound-treated wells and the mean cell number in infected control wells. Plates were submitted to quality control analysis using the Z’-factor^53 and only plates with Z’-factor > 0.5 were considered for further analysis. Groups of different samples were analyzed using the ANOVA test followed by Tukey’s multiple comparison test. Studies of correlation were performed using Pearson or Spearman tests. […] Dose–response data were processed with the Graphpad Prism software, version 6, using the sigmoidal dose–response (variable slope) nonlinear curve fitting function.

[2] = system: L. amazonensis; assay: Leishmania high content assay, intracellular amastigotes in PMA-differentiated THP-1 macrophages; type: cell-based, Leishmania amazonensis (MHOM/BR/1977/LTB0016); conditions: for EC50: Leishmania amazonensis
Procedure: as §1, §2, §3

[3] = system: L. braziliensis; assay: as above; type: cell-based, Leishmania braziliensis (MHOM/BR/1975/M2903); conditions: for EC50: Leishmania braziliensis
Procedure: as §1, §2, §3

[4] = system: L. donovani; assay: as above; type: cell-based, Leishmania donovani (MHOM/IN/1980/DD8)
Procedure: as §1, §2, §3

[5] = system: visceral leishmaniasis; set-up: method as in earlier work; conditions: phase II clinical trial; cited from earlier work
[6] = system: amastigote forms of L. aethiopica; set-up: method as in PMID 11801222; conditions: cited from earlier work
[7] = system: L. donovani; set-up: method as in PMID 21739037; conditions: in vitro; cited from earlier work
[8] = system: Leishmania; set-up: method as in PMID 27215734; conditions: cited from earlier work
[9] = THP-1, confirmatory dose-response, mean of two independent experiments, pEC50 = -log EC50 (M), read-out: pEC50 M L. a (converted)
[10] = THP-1, confirmatory dose-response, mean of two independent experiments, pEC50 = -log EC50 (M), read-out: pEC50 M L. b (converted)
[11] = THP-1, confirmatory dose-response, mean of two independent experiments, pEC50 = -log EC50 (M), read-out: pEC50 M L. d (converted)
[12] = THP-1, read-out: pEC50 M L. d (converted)
[13] = THP-1, library screening plates, mean ± standard deviation from eight assay plates, read-out: EC50 Amphotericin B
[14] = reference compound concentration-effect curves (Figure 2B), 96 h exposure, infected THP-1, read-out: EC50
[15] = dose-response of reference drugs, span over the three species
[16] = confirmatory dose-response, mean of two independent experiments, pEC50 = -log EC50 (M)

For `CN(C)CCCN1c2ccccc2CCc2ccc(Cl)cc21` [Clomipramine], the “pan-leishmanial activity (efficacy)” value [1] was “greater than 70%”.
Molecule `CNCCCN1c2ccccc2CCc2ccccc21` [Desipramine] has an EC50 [2, 9] of 2.75e-05 M and an EC50 [3, 10] of 3.24e-05 M.
Molecule `CN1CCN(CCCN2c3ccccc3Sc3ccc(C(F)(F)F)cc32)CC1` [Trifluoperazine] has an EC50 [4, 11] of 3.8e-05 M.
For `Cl.O=S(=O)(c1cccc2c(Cl)cccc12)N1CCCNCC1` [ML-9], the “pan-leishmanial activity (efficacy)” value [1] was “greater than 70%”.
Molecule `CN(C)CCCN1c2ccccc2Sc2ccccc21` [Promazine] has an EC50 [3, 10] of 4.57e-05 M.
For `CN(C)CCCN1c2ccccc2Sc2ccc(C(F)(F)F)cc21` [Triflupromazine], the EC50 [4, 11] was 2.82e-05 M.
With `Cl.O[Si](CCCN1CCCCC1)(c1ccc(F)cc1)C1CCCCC1` (centres unmarked) [pFHHSiD] the “normalized activity against two species” value [1] was over 90%.
For `Fc1ccc([C@@H]2CCNC[C@H]2COc2ccc3c(c2)OCO3)cc1` [Paroxetine], the EC50 [4, 11] was 3.16e-05 M.
`CC[C@]1(O)C[C@@H]2CN(CCc3c([nH]c4ccccc34)[C@@](C(=O)OC)(c3cc4c(cc3OC)N(C)[C@H]3[C@@](O)(C(=O)OC)[C@H](OC(C)=O)[C@]5(CC)C=CCN6CC[C@]43[C@@H]65)C2)C1` [Vinblastine] showed an EC50 [2, 9] of 2.82e-05 M and an EC50 [3, 10] of 3.47e-05 M.
In the case of `CNCCCC12CCC(c3ccccc31)c1ccccc12` [Maprotiline], the “pan-leishmanial activity (efficacy)” value [1] is reported as “greater than 70%”.
`COc1ccccc1OCCNCC(O)COc1cccc2[nH]c3ccccc3c12` (centres unmarked) [Carvedilol] showed an EC50 [2, 9] of 3.55e-05 M, an EC50 ([3]; THP-1, confirmatory dose-response screen, values in text, read-out: EC50) of 1.62e-05 M and an EC50 [3, 10] of 1.62e-05 M.
In the case of `CCC(=O)c1ccc2c(c1)N(CCCN(C)C)c1ccccc1S2` [Propionylpromazine], the EC50 [2, 9] is reported as 3.47e-05 M and the EC50 [3, 10] is reported as 3.09e-05 M.
For `c1cc(CN2CCCCC2)cc(OCCCNc2nc3ccccc3s2)c1` [SKF 95282], the EC50 [2, 9] was 4.27e-05 M, the EC50 [3, 10] was 2.63e-05 M and the EC50 [4, 11] was 4.9e-05 M.
Molecule `CN1CCN(C2Cc3ccccc3Sc3ccc(Cl)cc32)CC1` (centres unmarked) [Clorotepine] has an EC50 [2, 9] of 4.57e-05 M, an EC50 [3, 10] of 2.88e-05 M and an EC50 [4, 11] of 4.37e-05 M.
Molecule `OCCN1CCN(CCCN2c3ccccc3Sc3ccc(Cl)cc32)CC1` [Perphenazine] has an EC50 [4, 11] of 2.75e-05 M.
For `OCCN1CCN(CCC=C2c3ccccc3Sc3ccc(C(F)(F)F)cc32)CC1` [Flupenthixol], the EC50 [4, 11] was 3.47e-05 M.
Work on `CCc1cccc(N(C)C(N)=Nc2cccc3ccccc23)c1` [Cerestat] yielded an EC50 [2, 9] of 2.88e-05 M.
For `CCCCCCCCCCCCCCCCCCOP(=O)([O-])OC1CC[N+](C)(C)CC1` [Perifosine], the EC50 [4, 11] was 2.75e-05 M.
Molecule `CNCCCC1c2ccccc2C=Cc2ccccc21` [Protriptyline] has an EC50 [2, 9] of 3.89e-05 M, an EC50 [3, 10] of 3.72e-05 M and an EC50 [4, 11] of 2.95e-05 M. The “pan-leishmanial activity (efficacy)” value [1] was “greater than 70%”.
In the case of `CN(C)CC/C=C1/c2ccccc2Sc2cc(Cl)ccc21.Cl` [EU-0100170], the “normalized activity against two species” value [1] is reported as over 90%.
For `CNC1CC(c2ccc(Cl)c(Cl)c2)c2ccccc21` (centres unmarked) [Indatraline], the EC50 ([4]; THP-1) was 1.81e-05 M and the EC50 [4, 12] was 1.82e-05 M.
With `CNCCC=C1c2ccccc2CCc2ccccc21` [Nortriptyline] the EC50 [2, 9] was 2.95e-05 M and the EC50 [3, 10] was 3.63e-05 M.
`CN1C[C@H](CNC(=O)OCc2ccccc2)C[C@@H]2c3cccc4c3c(cn4C)C[C@H]21` [Metergoline] gave an EC50 [4, 11] of 3.24e-05 M.
With `C[C@@H]1[C@H](O)[C@@H](C)/C=C/C=C/C=C/C=C/C=C/C=C/C=C/[C@H](O[C@@H]2O[C@H](C)[C@@H](O)[C@H](N)[C@@H]2O)C[C@@H]2O[C@](O)(C[C@@H](O)C[C@@H](O)[C@H](O)CC[C@@H](O)C[C@@H](O)CC(=O)O[C@H]1C)C[C@H](O)[C@H]2C(=O)O` [amphotericin B] the EC50 [2, 13] was 2.1e-06 ± 1.6e-07 M, the EC50 [2, 14] was 1.7e-06 M and the EC50 [3, 13] was 9.3e-07 ± 4.5e-07 M. It also gave an EC50 [3, 14] of 1.3e-06 M, an EC50 [4, 13] of 8.2e-07 ± 7e-08 M and an EC50 [4, 14] of 7e-07 M. It also gave an EC50 [1, 15] of 0.7 to 2 µM and an Emax [1, 15] of about 100%.
In the case of Bromocryptine, the “pEC50 M L. a” value [2, 16] is reported as 4.43 and the “pEC50 M L. b” value [3, 16] is reported as 4.41.
Work on `CC(CN1c2ccccc2Sc2ccccc21)N(C)C` (centres unmarked) [Promethazine] yielded an EC50 [2, 9] of 3.98e-05 M and an EC50 [3, 10] of 3.98e-05 M.
In the case of `CSc1ccc(OCc2ncc([N+](=O)[O-])n2C)cc1` [fexinidazole], the efficacy in patients [5] is listed as “failed to demonstrate efficacy”.
`CCN(CC)C(C)CN1c2ccccc2Sc2ccccc21` (centres unmarked) [Ethopropazine] showed an EC50 [2, 9] of 4.57e-05 M, an EC50 [3, 10] of 3.72e-05 M and an EC50 [4, 11] of 3.16e-05 M.
With `CC(CN(C)C)CN1c2ccccc2CCc2ccccc21` (centres unmarked) [Trimipramine] the EC50 [2, 9] was 3.98e-05 M, the EC50 [3, 10] was 2.82e-05 M and the EC50 [4, 11] was 4.07e-05 M.
Work on `NC(=O)c1cc(N2CC2)c([N+](=O)[O-])cc1[N+](=O)[O-]` [CB 1954] yielded an EC50 ([2]; THP-1) of 3.1e-05 M, an EC50 ([2]; THP-1, read-out: pEC50 M L. a (converted)) of 3.09e-05 M and an EC50 ([3]; THP-1) of 1.6e-06 M. For the same molecule, the EC50 ([3]; THP-1, read-out: pEC50 M L. b (converted)) was 2.19e-06 M, the EC50 ([4]; THP-1) was 3.7e-06 M and the EC50 [4, 12] was 3.72e-06 M. The “pan-leishmanial activity (efficacy)” value [1] was “greater than 70%”.
For `CCCCCCCCCCCCCCCCOP(=O)([O-])OCC[N+](C)(C)C` [miltefosine], the EC50 ([2]; THP-1, variation across ten independent experiments, read-out: EC50) was 9.7e-07 to 1.4e-05 M, the EC50 [2, 14] was 2.3e-06 M and the EC50 [3, 14] was 1.6e-06 M. The EC50 [4, 14] was 6e-07 M, the “potency variation between species” value ([1]; EC50 compared between the three species) was “up to 4 fold” and the Emax [1, 15] was 78 to 100%. For the same molecule, the “sensitivity to miltefosine, L. aethiopica relative to L. major” value [6] was 14 fold and the “potency against L. donovani relative to L. amazonensis, L. braziliensis, L. guyanensis, and L. chagasi” value [7] was “approximately 20 times”.
With `N=C(CC(=O)O)C(=O)O` [Iminoaspartate] the “pEC50 M L. a” value [2, 16] was 4.42 and the “pEC50 M L. b” value [3, 16] was 4.52.
In the case of `C[C@]1(COc2ccc(N3CCC(Oc4ccc(OC(F)(F)F)cc4)CC3)cc2)Cn2cc([N+](=O)[O-])nc2O1` [Delamanid], the “efficacy against Leishmania” value [8] is given as “effective”.
